Reference: US10294272B2, “Peptides with antagonistic activities against natural CXCR4” (Pharis Biotec GmbH, priority 2013, dated 2019)
Values belong to the compound of their own block, whether it stands above or below them. Positions of bridges follow the written chain, without caps; N, C: chain ends. Residues, ends and D or L forms follow the SMILES beside them. Chains are numbered I, II in the order given. No end group written: not given here.

Experiments:
X4 HIV-1 strains = system: X4 HIV-1 strains
Experimental: (§1) Antiviral screening was performed using the X4 HIV-1 NL4-3 molecular clone.
(§2) HIV-1, HIV-2 and SIV molecular clones differing in coreceptor tropism were generated by transient transfection of 293T cells with proviral DNA by the calcium phosphate method (CalPhos™ Mammalian Transfection Kit, Clon-tech). After overnight incubation, the transfection mixture was replaced by DMEM medium supplemented with 10% FCS, and virus stocks were harvested 48 hrs post-transfection. Subsequently, the culture supernatant was centrifuged for 5 min at 3000 rpm to remove cell debris. The resulting virus stock was quantified by p24 (HIV) or p27 (SIV) antigen ELISA. Virus stocks were either used immediately or stored in aliquots at −80° C.
(§3) TZM-bl reporter cells containing the LacZ reporter gene under the control of the HIV-1 promoter were seeded in 96-well F-bottom microtiter plates (Greiner Bio-One). On the following day, the cells were preincubated with various dilutions of the peptide of SEQ ID NO 16 or its derivatives for 1 hour and subsequently infected with HIV-1, HIV-2, and SIV. Infection rates were determined after 2 days using the one-step Tropix Gal-Screen Kit, as recommended by the manufacturer.

CXCR4 [1] = molecular target: T1, CXCR4 (Homo sapiens, UniProt P61073); assay: Competition with CXCL12 binding to CXCR4 (real-time fluorescence, eGFP-CXCR4 cells)
T1 construct: expressed in transfected cells
T1 sequence (P61073 whole entry): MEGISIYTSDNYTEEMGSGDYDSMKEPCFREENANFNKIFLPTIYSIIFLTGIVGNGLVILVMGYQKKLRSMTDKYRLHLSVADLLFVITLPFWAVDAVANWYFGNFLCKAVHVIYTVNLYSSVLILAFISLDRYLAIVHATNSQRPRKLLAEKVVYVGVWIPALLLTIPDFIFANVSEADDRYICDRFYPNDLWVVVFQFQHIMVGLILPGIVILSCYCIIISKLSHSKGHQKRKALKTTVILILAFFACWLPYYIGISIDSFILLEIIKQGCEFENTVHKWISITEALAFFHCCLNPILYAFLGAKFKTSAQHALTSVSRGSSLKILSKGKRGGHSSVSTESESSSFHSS
Experimental: Anti-human CXCR4 (clone 12G5, IgG2a) or anti-human CXCR7 (clone 9C4) monoclonal antibodies (mAbs) were purchased from R&D Systems (Minneapolis, Minn.). […] The human chemokines CXCL12 and CXCL12-TexasRed were synthesized as described (Valenzuela-Fernandez, et al. 2001). The human chemokine CXCL11 was purchased from Clinisciences SAS (France).
Experiments were performed using cells stably expressing eGFP-CXCR4, suspended in HEPES-bovine serum albumin buffer (10 mM HEPES, 137.5 mM NaCl, 1.25 mM MgCl2, 1.25 mM CaCl2, 6 mM KCl, 10 mM glucose, 0.4 mM NaH2PO4, 0.1% bovine serum albumin (w/v), pH 7.4) (typically at 10^6 cells/mL). Time-based recordings of the fluorescence emitted at 510 nm (excitation at 470 nm) were performed at 21° C. using a spectrofluorimeter and sampled every 0.3 s. Fluorescence binding measurements were initiated by adding at 30 s 100 nM of CXCL12-TR to the 1 mL cell suspension. For competition experiments, EGFP-CXCR4 expressing cells were preincubated for 10 min in the absence or presence of various concentrations of unlabelled drugs. Then, CXCL12-TR (100 nM) was added and fluorescence was recorded until equilibrium was reached (300 s). Data were analyzed using Kaleidagraph 3.08 software (Synergy Software, Reading, Pa., USA).

CXCR4 [2] = molecular target: T2, CXCR4 (Mus musculus, UniProt P70658); assay: Asthma mouse model (OVA challenge); type: in vivo; details: mice, i.p., allergen challenge with OVA
T2 construct: from tissue; host or cells: live mice (C57Bl/6J for mobilization)
T2 sequence (P70658 whole entry): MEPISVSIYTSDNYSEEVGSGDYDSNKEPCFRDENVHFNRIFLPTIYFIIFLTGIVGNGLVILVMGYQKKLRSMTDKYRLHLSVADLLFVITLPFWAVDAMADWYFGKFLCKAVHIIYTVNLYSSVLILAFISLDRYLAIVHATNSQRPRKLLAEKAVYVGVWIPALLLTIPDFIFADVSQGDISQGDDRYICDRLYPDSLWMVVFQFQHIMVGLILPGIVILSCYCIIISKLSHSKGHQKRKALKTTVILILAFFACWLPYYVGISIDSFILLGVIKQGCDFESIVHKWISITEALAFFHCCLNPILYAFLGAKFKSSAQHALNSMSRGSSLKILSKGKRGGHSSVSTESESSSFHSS
Experimental: Mice were sensitized by intraperitoneal (i.p.) injection on days 0, 1 and 2 of 50 μg ovalbumin (OVA, Sigma-Aldrich, A5503) adsorbed on 2 mg aluminium hydroxide (Sigma-Aldrich, 23918-6) in saline. Mice were challenged by intranasal (i.n.) instillation of 10 μg OVA in 25 μl saline (12.5 μl/nostril) or saline alone for control mice on days 5, 6 and 7 under anesthesia (50 mg/kg ketamine and 3.3 mg/kg xylazine, i.p.). the peptide of SEQ ID NO 16 or ALB409-423 in saline were administered i.p. (16 μmol/kg) two hours before each OVA challenge. Bronchoalveolar lavage (BAL) and differential cell counts were performed 24 h after the last OVA challenge as previously reported in (Rebber et al., 2012).

X4 tropic HIV-1 NL4-3 = details: blocking X4 tropic HIV-1 NL4-3 infection
Experimental: as §1, §2, §3

Compound: HSA precursor: highly abundant HSA precursor; the most abundant protein in human plasma, of which the SEQ ID NO 16 peptide is a fragment
antiretroviral effect (X4 HIV-1 strains): no antiretroviral effect

interaction with CXCR4 (CXCR4 [1]): does not interact | CXCR4-dependent infiltration of neutrophils, lymphocytes and eosinophils into the airways (CXCR4 [2]): no significant effects | infiltration of macrophages (CXCR4 [2]): no significant effects
Compound: ALB409-423: ALB409-423, which does not interact with CXCR4; control peptide in the asthma mouse model (VRYTKKVPQVSTPTL) [reference compound]

Compound: CC[C@H](C)[C@H](N)C(=O)N[C@H](C(=O)N[C@@H](CCCNC(=N)N)C(=O)N[C@@H](Cc1c[nH]c2ccccc12)C(=O)N[C@H](C(=O)N[C@@H](CSSC[C@H](NC(=O)[C@@H](NC(=O)[C@H](Cc1c[nH]c2ccccc12)NC(=O)[C@H](CCCNC(=N)N)NC(=O)[C@@H](NC(=O)[C@@H](N)[C@@H](C)CC)C(C)C)[C@@H](C)O)C(=O)N[C@@H](CCCCN)C(=O)N[C@H](C(=O)N1CCC[C@H]1C(=O)N[C@@H](CCC(N)=O)C(=O)N[C@H](C(=O)N[C@@H](CO)C(=O)O)C(C)C)C(C)C)C(=O)N[C@@H](CCCCN)C(=O)N[C@H](C(=O)N1CCC[C@H]1C(=O)N[C@@H](CCC(N)=O)C(=O)N[C@H](C(=O)N[C@@H](CO)C(=O)O)C(C)C)C(C)C)[C@@H](C)O)C(C)C [408I-419 WC02 x2, (IVRWTCKVPQVS)2] (I: H-IVRWTCKVPQVS-OH / II: H-IVRWTCKVPQVS-OH; disulfide I:6-II:6; N-terminus and C-terminus assumed)
IC50 (X4 tropic HIV-1 NL4-3): 0.32 µM

Compound: LLVRYTKKVPQVS [Derivative 407-419, LLVRYTKKVPQVS]
IC50 (X4 tropic HIV-1 NL4-3): 11.1 µM
